# Data reported in US20190053492A1, “SUBSTITUTED PYRIDINE COMPOUNDS AS PESTICIDES” (Bayer CropScience Aktiengesellschaft, priority 2016, published 2019).
# Where two headings read alike, the source gives them in different places.
# Columns and labels:
# Spodoptera frugiperda = Spodoptera frugiperda spray test; format: in vivo; details: after 7 days, maize leaf discs
# Summary of the method: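 Efficacy in % was scored at 7 days against armyworm caterpillars placed on dried, compound-sprayed Zea mays leaf discs. Compound was dissolved in acetone/dimethylformamide and diluted in water with 1000 ppm alkylaryl polyglycol ether. 100% means all caterpillars were killed.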
# [1] = log P by HPLC on reversed-phase column (C 18), EEC Directive 79/831 Annex V.A8; format: physicochemical; details: 55° C.; for chromatographic logP: reversed-phase HPLC column (C 18); for LOGP_HCOOH: log P (HCOOH)
# Procedure: Temperature: 55° C. […] Called log P (HCOOH) in the table. […] Called log P (neutral) in the table.
# Phaedon cochleariae = Phaedon cochleariae spray test; format: in vivo; details: after 7 days, Chinese cabbage leaf discs; for pest or weed control at 500 g/ha / pest or weed control at 100 g/ha: Phaedon cochleariae, foliar, 168 h, read-out: efficacy (beetle larvae killed)
# Procedure: Phaedon cochleariae—Spray Test
# Solvent: 78.0 parts by weight of acetone • • 1.5 parts by weight of dimethylformamide
# Emulsifier: alkylaryl polyglycol ether
# To produce a suitable active ingredient formulation, 1 part by weight of active ingredient is dissolved with the specified parts by weight of solvent and made up with water containing an emulsifier concentration of 1000 ppm until the desired concentration is attained. To produce further test concentrations, the formulation is diluted with emulsifier-containing water.
# Discs of Chinese cabbage leaves (Brassica pekinensis) are sprayed with an active ingredient formulation of the desired concentration and, after drying, populated with larvae of the mustard beetle (Phaedon cochleariae).
# After 7 days, the efficacy in % is determined. 100% means that all the beetle larvae have been killed; 0% means that no beetle larvae have been killed.
# [2] = Spodoptera frugiperda, foliar, 168 h, application rate 500 g/ha, read-out: efficacy (caterpillars killed)
# [3] = log P, neutral range, HPLC on reversed-phase column (C 18)
# [4] = pH 7.8, LC-MS neutral range, pH 7.8, ammonium hydrogencarbonate/acetonitrile, read-out: log P (neutral)
# [5] = acidic range pH 2.7, 0.1% aqueous formic acid and acetonitrile, reversed-phase column (C 18)
# [6] = acidic range at pH 2.7, 0.1% aqueous formic acid and acetonitrile, HPLC on reversed-phase column (C 18)
# [7] = pH 2.7, LC-MS acidic range, pH 2.7, 0.1% formic acid/acetonitrile, read-out: log P (acidic) / log P (HCOOH)
# [8] = log P (neutral), HPLC reversed-phase column (C 18)
Structure (SMILES),"LOGP_NEUTRAL [1, 3]","LOGP_HCOOH [1, 5]",efficacy (caterpillars killed) (Spodoptera frugiperda; application rate 500 g/ha),efficacy (beetle larvae killed) (Phaedon cochleariae; application rate 500 g/ha),efficacy (caterpillars killed) (Spodoptera frugiperda; application rate 100 g/ha),efficacy (beetle larvae killed) (Phaedon cochleariae; application rate 100 g/ha),also measured
"N#Cc1ccc(CNC(=O)c2cc(-c3ccc(Cl)cc3)cc(NC(=O)C3CC3)n2)cc1 [Example I-020, 4-(4-Chlorophenyl)-N-(4-cyanobenzyl)-6-[(cyclopropylcarbonyl)amino]pyridine-2-carboxamide]",3.54,,,,,,"pest or weed control at 500 g/ha (Spodoptera frugiperda; [2]): 100%; chromatographic logP ([1]; pH 2.7, log P (HCOOH), acidic range pH 2.7, 0.1% aqueous formic acid and acetonitrile, reversed-phase column (C 18), read-out: LOGP_HCOOH): 3.6; chromatographic logP [1, 4]: 3.54; pest or weed control at 500 g/ha (Phaedon cochleariae; application rate 500 g/ha): 100%"
N#Cc1ccc(CNC(=O)c2cc(-c3cc(F)c(C(F)(F)C(F)(F)F)c(F)c3F)cc(NC(=O)C3CC3)n2)cc1 [Example I-274],,4.28,100%,100%,,,
N#Cc1ccc(CNC(=O)c2cc(-c3ccc(C(F)(F)F)cc3)cc(NC(=O)CC3CC3)n2)cc1 [Example I-055],3.82,3.92,100%,100%,100%,,
O=C(NCc1ccc(Cl)cc1F)c1cc(-c2ccc(OC(F)(F)F)cc2)cc(NC(=O)C2CC2)n1 [Example I-067],4.60,4.78,100%,100%,100%,,
N#Cc1ccc(CNC(=O)c2cc(-c3c(Cl)cc(C(F)(F)C(F)(F)F)cc3Cl)cc(NC(=O)C3CC3)n2)cc1 [Example I-265],,4.51,100%,100%,,,
"N#Cc1ccc(CNC(=O)c2cc(-c3ccc(C(F)(F)F)cn3)cc(NC(=O)C3CC3)n2)cc1 [Example I-174, N-(4-Cyanobenzyl)-6′-[(cyclopropylcarbonyl)amino]-5-(trifluoromethyl)-2,4′-bipyridine-2′-carboxamide]",3.22,,,,,,"pest or weed control at 500 g/ha (Spodoptera frugiperda; [2]): 100%; LOGP_HCOOH [1, 6]: 3.25; chromatographic logP [1, 7]: 3.25; chromatographic logP [1, 4]: 3.22; pest or weed control at 100 g/ha (Phaedon cochleariae; application rate 100 g/ha): 100%; pest or weed control at 500 g/ha (Phaedon cochleariae; application rate 500 g/ha): 100%"
N#Cc1ccc(CNC(=O)c2cc(-c3cc(F)c(C(F)(F)C(F)(F)F)c(F)c3)cc(NC(=O)C3CC3)n2)cc1 [Example I-271],,4.23,100%,83%,,,
"O=C(NC(=O)C1CC1)c1cc(-c2ccc(C(F)(F)C(F)(F)F)c(F)c2)cc(NC(=O)C2CC2)n1 [Example I-264, N-(Cyclopropylcarbonyl)-6-[(cyclopropylcarbonyl)amino]-4-[3-fluoro-4-(pentafluoroethyl)-phenyl]pyridine-2-carboxamide]",,4.62,,,,,"pest or weed control at 100 g/ha (Spodoptera frugiperda; Spodoptera frugiperda, foliar, 168 h, application rate 100 g/ha, read-out: efficacy (caterpillars killed)): 100%; pest or weed control at 500 g/ha (Spodoptera frugiperda; [2]): 100%; LOGP_NEUTRAL [1, 8]: 4.53; chromatographic logP [1, 7]: 4.62; chromatographic logP [1, 4]: 4.53; pest or weed control at 100 g/ha (Phaedon cochleariae; application rate 100 g/ha): 100%; pest or weed control at 500 g/ha (Phaedon cochleariae; application rate 500 g/ha): 100%"
N#Cc1ccc(CNC(=O)c2cc(-c3ccc(CC(F)(F)F)cc3)cc(NC(=O)C3CC3)n2)cc1 [Example I-144],3.00,,100%,100%,100%,100%,"LOGP_HCOOH [1, 6]: 3.55"
CC(C)(C)C(=O)Nc1cc(-c2ccc(OC(F)(F)F)cc2)cc(C(=O)NCc2ccc(C#N)cc2)n1 [Example I-206],4.45,,100%,100%,100%,,
Cc1cc(OC(F)(F)F)ccc1-c1cc(NC(=O)C2CC2)nc(C(=O)NCc2ccc(C#N)cc2)c1 [Example I-099],3.95,4.03,100%,100%,100%,100%,
N#Cc1cc(F)c(CNC(=O)c2cc(-c3ccc(C(F)(F)C(F)(F)F)c(F)c3)cc(NC(=O)C3CC3)n2)c(F)c1 [Example I-248],,4.55,100%,100%,100%,100%,
N#Cc1ccc(NC(=O)c2cc(-c3ccc(Cl)cc3)cc(NC(=O)C3CC3)n2)cc1 [Example I-022],4.29,4.34,100%,100%,100%,83%,
N#Cc1ccc(CNC(=O)c2cc(-c3ccc(OC(F)(F)C(F)(F)F)cc3)cc(NC(=O)C3CC3)n2)cc1 [Example I-191],,,100%,83%,,,"LOGP_HCOOH [1, 6]: 4.38"
O=C(NC1CC1)c1cc(-c2ccc(S(=O)(=O)C(F)(F)F)cc2)cc(NC(=O)C2CC2)n1 [Example I-103],3.17,3.28,100%,100%,,,
N#Cc1ccc(ONC(=O)c2cc(-c3ccc(OC(F)(F)F)cc3)cc(NC(=O)C3CC3)n2)cc1 [Example I-239],,3.72,83%,,,83%,"LOGP_NEUTRAL [1, 8]: 3.13"
CNC(=O)c1cc(-c2ccc(OC(F)(F)F)cc2)cc(NC(=O)C2CC2)n1 [Example I-127],,,100%,100%,83%,,"LOGP_HCOOH [1, 6]: 3.02"
N#Cc1ccc(CNC(=O)c2cc(-c3ccc(Br)c(F)c3)cc(NC(=O)C3CC3)n2)cc1 [Example I-262],,3.75,100%,100%,100%,100%,"LOGP_NEUTRAL [1, 8]: 3.73"

# Second part, led by results:
"LOGP_NEUTRAL [1, 3]","LOGP_HCOOH [1, 5]",Structure (SMILES),efficacy (caterpillars killed) (Spodoptera frugiperda; application rate 500 g/ha),efficacy (beetle larvae killed) (Phaedon cochleariae; application rate 500 g/ha),efficacy (caterpillars killed) (Spodoptera frugiperda; application rate 100 g/ha),efficacy (beetle larvae killed) (Phaedon cochleariae; application rate 100 g/ha),also measured
3.26,,N#CCCCCNC(=O)c1cc(-c2ccc(OC(F)(F)F)cc2)cc(NC(=O)C2CC2)n1 [Example I-157],83%,100%,100%,,"LOGP_HCOOH [1, 6]: 3.38"
3.55,3.67,O=C(NCc1ccc(Cl)nc1)c1cc(-c2ccc(C(F)(F)F)cc2)cc(NC(=O)C2CC2)n1 [Example I-011],100%,100%,,100%,
3.99,4.14,N#Cc1ccc(CNC(=O)c2cc(-c3ccc(C(F)(F)F)cc3)cc(NC(=O)C3CCC3)n2)cc1 [Example I-045],100%,83%,,100%,
2.75,3.19,O=C(NCc1ccccn1)c1cc(-c2ccc(C(F)(F)F)cc2)cc(NC(=O)C2CC2)n1 [Example I-007],83%,100%,,,
,3.94,O=C(NC1CC1)c1cc(-c2ccc(C(F)(F)C(F)(F)F)c(F)c2)cc(NC(=O)C2CC2)n1 [Example I-243],100%,100%,100%,100%,
4.77,4.91,CC(NC(=O)c1cc(-c2ccc(C(F)(F)F)cc2)cc(NC(=O)C2CC2)n1)c1ccc(C(F)(F)F)cc1 (stereo not drawn) [Example I-057],100%,83%,,,
3.26,3.36,N#Cc1ccc(CNC(=O)c2cc(-c3ccc(C(F)(F)F)cc3)cc(NC(=O)C3CC3)n2)cn1 [Example I-042],100%,100%,83%,100%,
3.77,3.82,O=C(NCC(F)(F)F)c1cc(-c2ccc(C(F)(F)F)cc2)cc(NC(=O)C2CC2)n1 [Example I-009],100%,100%,,,
4.53,4.63,O=C(NCc1ccc(Cl)cc1F)c1cc(-c2ccc(C(F)(F)F)cc2)cc(NC(=O)C2CC2)n1 [Example I-066],100%,100%,,,
